Measurements taken from patent US20020160008A1, “TREATMENT OF DIABETES” (priority 1994, published 2002).
Entries after “also recorded” stand apart in the source; their conditions may differ.

Legend:
[1] = Sustacal meal preceded by subcutaneous GLIP injection in normal volunteers (Example 4); format: in vivo, human; conditions: for delay in increase in blood levels of glucose, HPP, C-peptide and insulin: compared with the first dose
Experimental: 7 normal volunteers were studied after ingestion of a Sustacal meal either alone or immediately preceded by a subcutaneous injection of 1.00 μg GLIP.

[2] = Sustacal meal with GLIP infusion 0.75 pm/kg/min in remission phase Type I diabetes (Example 3); format: in vivo, human; conditions: GLIP 0.75 pmol/kg/min for 120 min with Sustacal meal, versus saline infusion; FIG. 3
Experimental: The test was conducted as described in Example 1 and blood glucose and C-peptide levels were measured. On a further test day, the subjects were studied during saline infusion after a similar Sustacal meal.

[3] = Intravenous glucose infusion with intravenous GLIP in remission phase Type I diabetes (Example 2); format: in vivo, human; conditions: IV GLIP 1.2 pm/kg/min for 60 min with IV glucose 20 g over 60 min, FIG. 2
Experimental: Four subjects with remission phase Type I diabetes were studied during intravenous glucose infusion. Subjects prepared for the tests as described in Example 1, but received an intravenous infusion of glucose (20 g over 60 min. constant rate)instead of the Sustacal meal. […] Blood levels of glucose and C-peptide were monitored as in Example 1.

[4] = Sustacal meal preceded by subcutaneous GLIP injection in Type I diabetic subjects (Example 5); format: in vivo, human; conditions: Type I diabetics, 100 μg GLIP subcutaneously before Sustacal meal
Text: 7 Type I diabetic subjects were studied.

[5] = 50 μg GLIP plus 5 units insulin (half the usual dose) subcutaneously before Sustacal meal; one subject; FIG. 6 Panel A
Text: One Type 1 diabetic subject was given GLIP along with insulin and the effects on post-prandial glycaemia observed. […] Blood levels of GLIP were monitored by a standard radioimmunoassay method.

[6] = Sustacal meal with intravenous GLIP infusion 1.2 pm/kg/min in remission phase Type I diabetes (Example 1); format: in vivo, human; conditions: IV GLIP 1.2 pm/kg/min for 120 min after Sustacal meal
Experimental: 7 subjects with remission phase Type I diabetes were studied after ingestion of a standardised meal of Sustacal (Upjohn) (delivering […]). Subjects continued their normal insulin treatment programme on the day prior to the test and, on the day of the test, omitted their morning insulin injection and arrived fasting at 8:00 am. […] Infusion was continued for 120 minutes. Blood levels of glucose, C-peptide, gastrin, glucagon and HPP were monitored by standard radioimmunoassay methods in samples taken before and at intervals during the study, up to 180 minutes. On another test day, subjects were given the Sustacal meal alone and the same analytes were similarly monitored.

For “Glucagon-like peptide 1(7-36)amide [GLIP]”, the “delay in increase in blood levels of glucose, HPP, C-peptide and insulin” value ([1]; 50 μg GLIP) was “proportionally shorter”, the “delay in increase in blood levels of glucose, HPP, C-peptide and insulin” value ([1]; 200 μg GLIP) was “longer delays” and the “increase in blood levels of glucose, HPP, C-peptide and insulin” value ([1]; subcutaneous GLIP (1.00 μg as printed elsewhere in the source) before Sustacal meal, FIG. 4) was “A delay in increase”. For the same substance, the C-peptide after meal [2] was “rise in C-peptide was similar to the control experiment”, the “blood glucose after meal” value [2] was “increase in glucose was less than in the control experiment” and the “control of blood glucose level” value [3] was “improved control of blood glucose level”. The “secretion of endogenous insulin” value [3] was “stimulated secretion of endogenous insulin”, the “blood glucose levels compared to control” value ([4]; no morning insulin, FIG. 5 Panel A) was “lowering of blood glucose levels” and the “pancreatic polypeptide (HPP) levels” value ([4]; FIG. 5 Panel D) was “delayed rise in pancreatic polypeptide (HPP) levels”. The “insulin secretion (C-peptide, insulin)” value ([4]; FIG. 5 Panels B and C) was “no enhancement of insulin secretion over control levels”, the “blood glucose after standard meal (maximum)” value [5] was ≤ 8 mM and the “blood levels of C-peptide” value [6] was “prevented a significant increase in blood levels of C-peptide”. For the same substance, the “plasma glucagon levels stimulated by the meal” value [6] was “prevented the mean rise in plasma glucagon levels”, the “control of blood glucose level after a meal” value ([6]; FIG. 1 Panel A) was “excellent control of blood glucose level” and the “pancreatic polypeptide (PP) response to meal” value ([6]; FIG. 1 Panel C) was “this response was absent during GLIP infusion”. The “gastrin response / gastrin levels” value ([6]; FIG. 1 Panel E) was “normal gastrin response; also recorded: not significantly affected”.
